US7115608B2, “Pyridinone and pyridinethione derivatives having HIV inhibiting properties” (Centre National de la Recherche Schentifique, priority 2000, dated 2006)
pIC50: −log10 of the molar value. Like-named read-outs stand apart in the source and are kept apart here.

Experiments:
[1] = Cytotoxicity in mock-infected MT-4 cells (MTT); format: cell-based; details: human, mock-infected MT-4 cells, concentration reducing absorbance of mock-infected MT-4 control by 50%
HIV-1 [2] = details: for SI: selectivity index, ratio of CC50 to IC50; for pIC50: dose achieving 50% protection of HIV-infected MT-4 cells, MTT, OD 540 nm
Description: (§1) A rapid, sensitive and automated assay procedure was used for the in vitro evaluation of anti-HIV agents. […] Inhibition of the HIV-induced cytopathic effect was used as the end point. The viability of both HIV- and mock-infected cells was assessed spectrophotometrically via the in situ reduction of 3-(4,5-dimethylthiazol-2-yl)-2,5-diphenyltetrazolium bromide (MTT). […] The percent protection achieved by the compound in HIV-infected cells was calculated by the following formula:
(§2) [formula] expressed in %, whereby (ODT)HIV is the optical density measured with a given concentration of the test compound in HIV-infected cells; (ODC)HIV is the optical density measured for the control untreated HIV-infected cells; (ODC)MOCK is the optical density measured for the control untreated mock-infected cells; all optical density values were determined at 540 nm. […] The ratio of CC50 to IC50 was defined as the selectivity index (SI).

HIV-1 [3] = experiment: microbe, parasite or virus in culture; details: Human immunodeficiency virus 1, MT4
Description: as §1, §2

mock-infected MT-4 cells = experiment: Cytotoxicity in mock-infected MT-4 cells (MTT); format: cell-based; details: concentration reducing absorbance of mock-infected MT-4 control by 50%

| melting point | SMILES | CC50 [1] | SI (HIV-1 [2]) | pIC50 (HIV-1 [3]) | CC50 (mock-infected MT-4 cells) | pIC50 (HIV-1 [2]) |
| --- | --- | --- | --- | --- | --- | --- |
|  | CCSCc1c(C)[nH]c(=O)c(I)c1Sc1cc(C)cc(C)c1 [compound 45] | > 100000 nM | >31623 | 8.49 |  |  |
| 240 °C | Cc1cc(C)cc(Sc2c(CO)c(C)[nH]c(=O)c2I)c1 [compound 61] |  |  |  |  |  |
|  | Cc1cc(C)cc(Sc2c(CN3CCOCC3)c(C)[nH]c(=O)c2I)c1 [compound 43, 4-[(3,5-dimethylphenyl)-thio]-3-iodo-6-methyl-5-morpholinomethyl-1H-pyridin-2-one] | 10000 nM | 10000 | 9.00 |  |  |
|  | C=Cc1c(Oc2cc(C)cc(C)c2)c(CC)c(C)[nH]c1=O [compound 234, 4-(3,5-dimethylphenoxy)-3-ethenyl-5-ethyl-6-methyl-2(1H)-pyridinone] | 10000 nM | 5012 | 8.70 |  |  |
|  | CCc1c(C)[nH]c(=O)c(CC)c1Oc1cc(C)cc(C)c1 [compound 231, 4-(3,5-dimethylphenoxy)-3,5-diethyl-6-methyl-2(1H)-pyridinone] | 10000 nM | 3162 | 8.49 |  |  |
|  | Cc1cc(C)cc(Oc2c(Cn3ccnn3)c(C)[nH]c(=O)c2I)c1 [compound 713] |  | >39811 |  | > 100000 nM | 8.60 |
|  | CCc1c(C)[nH]c(=O)c(I)c1Oc1cc(/C(C)=C/C#N)cc(/C(C)=C/C#N)c1 [compound 684] |  | >125893 |  | > 100000 nM | 9.10 |
|  | CCc1c(C)[nH]c(=O)c(I)c1[S+]([O-])c1cc(C)cc(C)c1 (stereo not shown) [compound 108] | 50000 nM | 19953 | 8.60 |  |  |
|  | CCc1c(C)[nH]c(=O)c(I)c1Oc1cc(I)cc(CC#N)c1 [compound 426, [3-(5-ethyl-3-iodo-6-methyl-2-oxo-1,2-dihydro-pyridin-4-yloxy)-5-iodo-phenyl]-acetonitrile] | 63000 nM | 39811 | 8.80 |  |  |
|  | CCc1c(CO)[nH]c(=O)c(I)c1Oc1cc(C)cc(C)c1 [compound 133, 4-(3,5-dimethylphenoxy)-5-ethyl-6-(hydroxymethyl)-3-iodo-2(1H)-pyridinone] | > 10000 nM | >6310 | 8.80 |  |  |
|  | COCCOCc1c(C)[nH]c(=O)c(I)c1Oc1cc(C)cc(C)c1 [compound 253] |  | >6310 |  | > 10000 nM | 8.80 |
|  | CCc1c(C)[nH]c(=O)c(OC)c1Oc1cc(C)cc(C)c1 [compound 277] |  | >39811 |  | > 100000 nM | 8.60 |
|  | Cc1cc(C)cc(Sc2c(/C=N/OCc3ccccc3)c(C)[nH]c(=O)c2I)c1 [compound 31] |  | >12589 |  | > 100000 nM | 8.10 |
|  | Cc1cc(C)cc(Oc2c(Cn3cncn3)c(C)[nH]c(=O)c2I)c1 [compound 574] |  | >50119 |  | > 100000 nM | 8.70 |
| 158 °C | CCc1c(C=O)[nH]c(=O)c(I)c1Oc1cc(C)cc(C)c1 [compound 159, 4-(3,5-dimethylphenoxy)-3-ethyl-1,6-dihydro-5-iodo-6-oxo-2-pyridinecarboxaldehyde] |  |  |  |  |  |
|  | CCc1c(C)[nH]c(=O)c(I)c1Oc1cccc(Br)c1 [compound 307] |  | >6310 |  | > 32000 nM | 8.30 |
|  | CCc1c(C)[nH]c(=O)c(I)c1Oc1cccc(C=CC=NO)c1 [compound 309] |  | 1585 |  | 10000 nM | 8.20 |
|  | Cc1cc(C)cc(Oc2c(CCO)c(C)[nH]c(=O)c2I)c1 [compound 241] |  | >63096 |  | > 100000 nM | 8.80 |
|  | COc1ccccc1Cc1c(C)[nH]c(=O)c(I)c1Oc1cc(C)cc(C)c1 [compound 249] |  | >25119 |  | > 32000 nM | 8.89 |
|  | CCc1c(C)[nH]c(=O)c(I)c1Oc1cc(Br)cc(/C=C/C#N)c1 [compound 470] | 13000 nM | 12589 | 9.00 |  |  |
|  | Cc1cc(C)cc(Oc2c(CSCc3csc(C)n3)c(C)[nH]c(=O)c2I)c1 [compound 483, 4-(3,5-dimethylphenoxy)-3-iodo-6-methyl-5-[2-methylthiazol-4-ylmethylsulfanylmethyl)-1H-pyridin-2-one] | > 100000 nM | >100000 | 9.00 |  |  |
|  | Cc1cc(C)cc(Oc2c(CNC(=O)c3cc4ccccc4o3)c(C)[nH]c(=O)c2I)c1 [compound 143] |  | >1585 |  | > 10000 nM | 8.20 |
|  | CCc1c(CCCO)[nH]c(=O)c(I)c1Oc1cc(C)cc(C)c1 [compound 217] |  | >1585 |  | > 10000 nM | 8.20 |
| 256 to 258 °C | Cc1cc(C)cc(Oc2c(CCl)c(C)[nH]c(=O)c2I)c1 [compound 125, 5-(chloromethyl)-4-(3,5-dimethylphenoxy)-3-iodo-6-methyl-2(1H)-pyridinone] |  |  |  |  |  |
|  | Cc1cc(C)cc(Oc2c(CN3CCN(c4ccccn4)CC3)c(C)[nH]c(=O)c2I)c1 [compound 696] |  | >2512 |  | > 40000 nM | 7.80 |
|  | CCc1c(C)[nH]c(=O)c(I)c1Oc1cccc(N)c1 [compound 121] |  | >10000 |  | > 100000 nM | 8.00 |

| melting point | SMILES | CC50 [1] | SI (HIV-1 [2]) | pIC50 (HIV-1 [3]) | CC50 (mock-infected MT-4 cells) | pIC50 (HIV-1 [2]) |
| --- | --- | --- | --- | --- | --- | --- |
|  | CCc1c(C)[nH]c(=O)c(I)c1Cc1cccc(C)c1 [compound 286] |  | >12589 |  | > 32000 nM | 8.60 |
|  | CCc1c(C)[nH]c(=O)c(I)c1Sc1cccc(C)c1 [compound 88] |  | >39811 |  | > 100000 nM | 8.60 |
|  | CCc1c(C)[nH]c(=O)c(SC)c1Oc1cc(C)cc(C)c1 [compound 272] |  | 12589 |  | 25000 nM | 8.70 |
|  | CCc1c(C)[nH]c(=O)c(I)c1Oc1cccc([N+](=O)[O-])c1 [compound 297] |  | >7943 |  | > 32000 nM | 8.40 |
|  | Cc1cc(C)cc(Oc2c(CO)c(C)[nH]c(=O)c2I)c1 [compound 257, 4-(3,5-dimethylphenoxy)-5-(hydroxymethyl)-3-iodo-6-methyl-2(1H)-pyridinone] | > 32000 nM | >6310 | 8.30 |  |  |
|  | CCc1c(C)[nH]c(=O)c(I)c1Oc1cc(C)cc(CCl)c1 [compound 81] |  | 1995 |  | 13000 nM | 8.20 |
|  | CC(=O)N1CCN(Cc2c(C)[nH]c(=O)c(I)c2Oc2cc(C)cc(C)c2)CC1 [compound 701] |  | 6310 |  | 63000 nM | 8.00 |
|  | Cc1cc(C)cc(Oc2c(CSCc3ccccc3)c(C)[nH]c(=O)c2I)c1 [compound 92] |  | >5012 |  | > 32000 nM | 8.20 |
|  | Cc1cc(C)cc(Oc2c(CCCc3ccccc3)c(C)[nH]c(=O)c2I)c1 [compound 547, 4-(3,5-dimethylphenoxy)-3-iodo-6-methyl-5-(3-phenyl-propyl)-1H-pyridin-2-one] | > 100000 nM | >15849 | 8.20 |  |  |
|  | CCc1c(C)[nH]c(=O)c(C(F)(F)F)c1Oc1cc(C)cc(C)c1 [compound 409] |  | 12589 |  | 40000 nM | 8.49 |
|  | Cc1cc(C)cc(Sc2c(Cn3cccn3)c(C)[nH]c(=O)c2I)c1 [compound 589] |  | >7943 |  | > 10000 nM | 8.89 |
|  | CCc1c(C)[nH]c(=O)c(I)c1Oc1cccc(/C=C/C#N)c1 [compound 319] |  | >50119 |  | > 100000 nM | 8.70 |
|  | CCc1c(C)[nH]c(=O)c(I)c1Oc1ccccc1 [compound 328] |  | >63096 |  | > 100000 nM | 8.80 |
|  | Cc1cc(C)cc(Oc2c(COCc3ccsc3)c(C)[nH]c(=O)c2I)c1 [compound 244] |  | >25119 |  | > 100000 nM | 8.40 |
|  | COCCc1c(C)[nH]c(=O)c(I)c1Oc1cc(C)cc(C)c1 [compound 264] |  | >10000 |  | > 10000 nM | 9.00 |
|  | CCOCc1c[nH]c(=O)c(I)c1Oc1cc(C)cc(C)c1 [compound 256] |  | >5012 |  | > 10000 nM | 8.70 |
|  | CCc1c(C)[nH]c(=O)c(Sc2ccccc2)c1Oc1cc(C)cc(C)c1 [compound 280] |  | 2512 |  | 25000 nM | 8.00 |
|  | CON=Cc1c(C)[nH]c(=O)c(I)c1Sc1cc(C)cc(C)c1 [compound 46] |  | >50119 |  | > 100000 nM | 8.70 |
|  | Cc1cccc(Sc2c3c([nH]c(=O)c2I)CCCC3)c1 [compound 222] |  | 251 |  | 2000 nM | 8.10 |
|  | CC(=O)c1ccc(N2CCN(Cc3c(C)[nH]c(=O)c(I)c3Oc3cc(C)cc(C)c3)CC2)cc1 [compound 694] |  |  |  | 63000 nM | 8.00 |
|  | Cc1cc(C)cc(Oc2c(CCCOCc3ccccc3)c(C)[nH]c(=O)c2I)c1 [compound 250] |  | 5012 |  | 25000 nM | 8.30 |
|  | CCOC(=O)CSCc1c(C)[nH]c(=O)c(I)c1Oc1cc(C)cc(C)c1 [compound 99] |  | >10000 |  | > 100000 nM | 8.00 |
|  | Cc1cc(C)cc(Sc2c(Cn3ccnc3)c(C)[nH]c(=O)c2I)c1 [compound 606] |  | 15849 |  | 20000 nM | 8.89 |
|  | CCc1c(C)[nH]c(=O)c(I)c1Oc1cccc(CO)c1 [compound 322] |  | >15849 |  | > 100000 nM | 8.20 |
|  | Cc1cc(C)cc(Oc2c(COCc3ccccc3)c(C)[nH]c(=O)c2I)c1 [compound 245] |  | >15849 |  | > 100000 nM | 8.20 |

| SMILES | melting point | CC50 [1] | SI (HIV-1 [2]) | pIC50 (HIV-1 [3]) | CC50 (mock-infected MT-4 cells) | pIC50 (HIV-1 [2]) |
| --- | --- | --- | --- | --- | --- | --- |
| CCOCc1c(C)[nH]c(=O)c(I)c1Sc1cc(C)cc(C)c1 [compound 86] | 220 to 222 °C | > 100000 nM | >31623 | 8.49 |  |  |
| CCOCc1c(C)[nH]c(=O)c(Br)c1Sc1cc(C)cc(C)c1 [compound 85] | 183 to 184 °C | > 100000 nM | >31623 | 8.49 |  |  |
